Values joined by “and” are separate entries in the source; they are usually repeats but may differ in a detail not shown here. Equal values may be shown once.
System: cardiac allograft (C57BL/6 to BALB/c mice)
Assay: C57BL/6 to BALB/c fully MHC-mismatched mouse heart transplantation model (graft survival, pulsation)
Type: in vivo
Protocol: The studies described in this section examined graft survival in a C57BL/6 to BALB/c fully MHC-mismatched mouse heart transplantation model. Each experimental group included 4-6 animals. Some of the experimental groups were treated with antibodies. […] Antibody 4 is a control, murine monoclonal antibody that shares a variable region with Antibody 2. […]
An experiment was also performed to evaluate whether use of an anti-CD200 antibody can reduce the duration or amount of mycophenolate mofetil that is necessary to prolong the survival of an allograft in a recipient mammal. First, a pilot experiment was performed to determine the dose of, and duration of, mycophenolate mofetil required to prolong allograft survival in mice. As described in Example 3, these studies examined graft survival in a C57BL/6 to BALB/c fully MHC-mismatched mouse heart transplantation model. Each experimental group included five (5) animals. The three experimental groups were treated as follows:
Group 1-PE (pilot experiment): cardiac allograft-bearing mice were orally administered mycophenolate mofetil at a dose of 120 mg/kg each day of the study beginning at the time of transplant;
Group 2-PE: cardiac allograft-bearing mice were orally administered mycophenolate mofetil at a dose of 80 mg/kg each day of the study beginning at the time of transplant; and
Group 3-PE: cardiac allograft-bearing mice were orally administered FK-506 at a dose of 16 mg/kg for each day of the study beginning at the time of transplant. […]
(§1) As described in Example 3, these studies examined graft survival in a C57BL/6 to BALB/c fully MHC-mismatched mouse heart transplantation model. Each experimental group included five (5) animals. The five experimental groups were treated as follows: […]
as §1, with “The three” for “The five”, “as follows, with treatment beginning at the time of transplantation:” for “as follows:”

SMILES	Individual Survival (FK-506 alone, 16 mg/kg orally each day of the study, 16 mg/kg)	Individual Survival (mycophenolate mofetil alone, 80 mg/kg orally each day of the study (pilot experiment), 80 mg/kg)	Mean Survival (mycophenolate mofetil alone, 80 mg/kg orally each day of the study (pilot experiment), listed as MMF, 80 mg/kg)	Individual Survival (mycophenolate mofetil alone, 120 mg/kg orally each day of the study (pilot experiment), 120 mg/kg)
C=CC[C@@H]1/C=C(\C)C[C@H](C)C[C@H](OC)[C@H]2O[C@@](O)(C(=O)C(=O)N3CCCC[C@H]3C(=O)O[C@H](/C(C)=C/[C@@H]3CC[C@@H](O)[C@H](OC)C3)[C@H](C)[C@@H](O)CC1=O)[C@H](C)C[C@@H]2OC [FK-506, tacrolimus]	23 days and 25 days (2×) and 26 days and 27 days			
COc1c(C)c2c(c(O)c1C/C=C(\C)CCC(=O)OCCN1CCOCC1)C(=O)OC2 [mycophenolate mofetil]		18 days and 19 days and 20 days and 22 days (2×)	approximately 20.2 days	20 days and 21 days and 22 days and 23 days and 25 days

Source: patent US9447187B2, “Use of an anti-CD200 antibody for prolonging the survival of allografts” (Alexion Pharmaceuticals, Inc., priority 2011, dated 2016)
